Activity calls are given as the source filed them.
What was measured:
[1] = target: Luciferin 4-monooxygenase (Photinus pyralis, UniProt P08659); assay: inhibition of purified Photinus pyralis luciferase – biochemical, luminescence, dose response (AID 1891)
HeLa = assay: ATP-based viability loss in HeLa cells – cell-based, CellTiter-Glo luminescence, cherry-pick samples, cytotoxicity control for MITF activator project, dose response (AID 540259); type: functional; details: Homo sapiens
[2] = target: T1, Rac GTPase-activating protein 1 (Homo sapiens, UniProt Q9H0H5); assay: blockers of MgcRacGAP-driven Rac1 GTP hydrolysis – biochemical, ADP Hunter fluorescence, primary and confirmatory, confirmation (AID 624330); type: functional
T1 sequence (Q9H0H5 whole entry): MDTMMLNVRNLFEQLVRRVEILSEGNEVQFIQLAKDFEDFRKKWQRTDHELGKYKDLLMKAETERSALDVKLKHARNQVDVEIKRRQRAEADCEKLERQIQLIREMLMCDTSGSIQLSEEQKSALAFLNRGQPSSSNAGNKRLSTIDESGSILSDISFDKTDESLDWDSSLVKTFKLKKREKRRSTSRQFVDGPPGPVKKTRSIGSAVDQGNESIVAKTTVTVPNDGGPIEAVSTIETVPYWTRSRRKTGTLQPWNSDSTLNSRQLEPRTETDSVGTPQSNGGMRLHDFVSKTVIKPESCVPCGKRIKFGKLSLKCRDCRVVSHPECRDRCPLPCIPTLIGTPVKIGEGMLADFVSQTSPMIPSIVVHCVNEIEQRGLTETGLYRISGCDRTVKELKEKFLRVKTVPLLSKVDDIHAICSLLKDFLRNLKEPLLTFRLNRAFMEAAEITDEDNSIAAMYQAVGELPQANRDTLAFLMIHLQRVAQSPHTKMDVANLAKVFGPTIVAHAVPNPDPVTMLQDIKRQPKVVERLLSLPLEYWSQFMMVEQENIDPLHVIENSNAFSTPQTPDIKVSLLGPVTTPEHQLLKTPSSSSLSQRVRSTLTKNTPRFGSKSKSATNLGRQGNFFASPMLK

Escherichia coli = assay: microbe, parasite or virus in culture
[3] = Luminescence Cell-Based Dose Confirmation HTS to Identify Inhibitors of Platelet Dense Granule Release. [Related pubchem assays: 1663 (Primary HTS), 1678 (Summary of Project)]; type: functional
Mu-type opioid receptor = Mu-type opioid receptor (Homo sapiens, UniProt P35372); assay: (§1) Counterscreen for agonists of heterodimerization of the mu 1 (OPRM1) and delta 1 (OPRD1) opioid receptors: Luminescence-based cell-based high throughput dose response assay to identify agonists of OPRM1 homodimerization.; type: functional
[4] = target: Delta-type opioid receptor (Homo sapiens, UniProt P41143); assay: as §1, with “of OPRD1” for “of OPRM1”, “homodimerization. [Related pubchem assays (depositor defined):AID504326, AID504355, AID504692, AID504904, AID504905]” for “homodimerization.”; type: functional
[5] = target: 5-hydroxytryptamine receptor 5A (Homo sapiens, UniProt P47898); assay: Counterscreen for agonists of OPRM1-OPRD1 heterodimerization: luminescence-based cell-based high throughput dose response assay to identify agonists of 5-hydroxytryptamine (serotonin) 5A receptor (HTR5A). [Related pubchem assays (depositor defined):AID504326, AID504355, AID504692, AID504904, AID504905]; type: functional
[6] = target: T2, Heat shock factor protein 1 (Mus musculus, UniProt P38532); assay: decrease of HSF1-responsive luciferase luminescence – cell-based, NIH3T3, dose retest, confirmation (AID 2382); type: functional;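 note: NIH3T3 fibroblasts with HSF1-driven luciferase reporter stressed by proteasome inhibitor MG132; luminescence from HSF1-driven luciferase expression after 8 hours of MG132 stress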
T2 sequence (P38532 whole entry): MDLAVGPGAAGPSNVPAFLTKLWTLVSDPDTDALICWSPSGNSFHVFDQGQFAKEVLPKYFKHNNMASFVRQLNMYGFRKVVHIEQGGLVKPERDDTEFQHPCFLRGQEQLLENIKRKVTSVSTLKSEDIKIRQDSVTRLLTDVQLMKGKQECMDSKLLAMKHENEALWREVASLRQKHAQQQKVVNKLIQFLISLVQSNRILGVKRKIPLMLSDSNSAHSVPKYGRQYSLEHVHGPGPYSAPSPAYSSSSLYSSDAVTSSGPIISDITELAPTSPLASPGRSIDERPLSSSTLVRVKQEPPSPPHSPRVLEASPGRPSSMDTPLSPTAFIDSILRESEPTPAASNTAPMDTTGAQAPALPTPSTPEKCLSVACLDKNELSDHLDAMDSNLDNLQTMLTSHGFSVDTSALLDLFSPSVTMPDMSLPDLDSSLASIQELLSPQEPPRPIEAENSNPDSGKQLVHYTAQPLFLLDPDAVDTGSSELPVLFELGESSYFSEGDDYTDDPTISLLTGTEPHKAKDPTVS

Delta-type opioid receptor, sequence (P41143 whole entry): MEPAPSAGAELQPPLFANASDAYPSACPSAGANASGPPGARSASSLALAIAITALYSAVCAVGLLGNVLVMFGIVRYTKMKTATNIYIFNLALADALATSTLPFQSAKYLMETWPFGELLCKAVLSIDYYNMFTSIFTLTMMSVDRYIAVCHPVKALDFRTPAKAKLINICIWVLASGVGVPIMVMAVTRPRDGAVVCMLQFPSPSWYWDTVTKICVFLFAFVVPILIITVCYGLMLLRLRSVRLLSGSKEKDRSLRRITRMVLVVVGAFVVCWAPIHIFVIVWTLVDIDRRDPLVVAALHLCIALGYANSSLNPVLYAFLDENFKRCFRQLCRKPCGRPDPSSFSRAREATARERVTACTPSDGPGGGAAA
Luciferin 4-monooxygenase, sequence (P08659 whole entry): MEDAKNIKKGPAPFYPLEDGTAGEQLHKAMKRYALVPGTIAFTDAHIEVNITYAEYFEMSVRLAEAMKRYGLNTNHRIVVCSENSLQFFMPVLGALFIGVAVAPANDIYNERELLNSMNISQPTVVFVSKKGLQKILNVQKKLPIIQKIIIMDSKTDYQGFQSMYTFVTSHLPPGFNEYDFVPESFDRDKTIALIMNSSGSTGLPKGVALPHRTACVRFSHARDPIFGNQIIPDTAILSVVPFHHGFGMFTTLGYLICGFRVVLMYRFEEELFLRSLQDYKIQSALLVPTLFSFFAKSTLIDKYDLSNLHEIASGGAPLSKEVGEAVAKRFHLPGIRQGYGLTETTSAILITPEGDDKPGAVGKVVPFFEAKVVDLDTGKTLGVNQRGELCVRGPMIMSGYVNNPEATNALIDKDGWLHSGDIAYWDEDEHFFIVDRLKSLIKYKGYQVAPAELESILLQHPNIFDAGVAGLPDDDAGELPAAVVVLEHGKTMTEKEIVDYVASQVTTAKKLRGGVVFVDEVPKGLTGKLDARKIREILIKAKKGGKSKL
Mu-type opioid receptor, sequence (P35372 whole entry): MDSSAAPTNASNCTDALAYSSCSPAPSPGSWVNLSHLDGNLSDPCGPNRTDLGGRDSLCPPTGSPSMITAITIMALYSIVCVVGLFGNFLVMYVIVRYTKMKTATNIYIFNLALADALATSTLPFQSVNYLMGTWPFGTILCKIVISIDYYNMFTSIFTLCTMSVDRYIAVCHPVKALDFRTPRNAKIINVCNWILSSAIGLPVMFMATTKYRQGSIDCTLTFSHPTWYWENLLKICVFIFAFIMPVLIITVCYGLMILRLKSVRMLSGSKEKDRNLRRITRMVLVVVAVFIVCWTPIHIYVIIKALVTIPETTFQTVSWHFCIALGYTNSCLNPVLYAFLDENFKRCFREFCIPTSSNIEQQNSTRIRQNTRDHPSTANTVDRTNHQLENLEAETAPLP
5-hydroxytryptamine receptor 5A, sequence (P47898 whole entry): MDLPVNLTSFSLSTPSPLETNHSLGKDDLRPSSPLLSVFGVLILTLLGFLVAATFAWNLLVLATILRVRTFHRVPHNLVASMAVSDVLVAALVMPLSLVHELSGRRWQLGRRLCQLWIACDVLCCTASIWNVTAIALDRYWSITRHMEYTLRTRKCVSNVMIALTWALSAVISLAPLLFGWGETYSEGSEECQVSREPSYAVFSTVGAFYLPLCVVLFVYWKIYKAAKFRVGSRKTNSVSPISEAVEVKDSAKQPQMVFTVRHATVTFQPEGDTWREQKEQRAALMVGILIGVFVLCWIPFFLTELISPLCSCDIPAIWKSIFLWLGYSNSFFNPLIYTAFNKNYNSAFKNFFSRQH

Row | Compound | EC50 [1] | AC50 (HeLa) | IC50 [2] | AC50 (Escherichia coli) | EC50 [3] | EC50 (Mu-type opioid receptor) | EC50 [4] | EC50 [5] | EC50 [6]
1 | COc1ccc(/C=N/Nc2ccccn2)cc1O | 17.6 µM (active) | 282 µM (active) | 70.2 µM (active) | 31.1 µM (active) | 12.5 µM (active) | – | – | – | –
2 | COc1ccc(/C=C/C(=O)NC(=S)NCCc2ccc(OC)c(OC)c2)cc1 | – | – | – | – | – | > 92.5 µM (inactive) | > 92.5 µM (inactive) | > 92.5 µM (inactive) | 13.6 µM (active)

— ChEMBL document CHEMBL1201862, “PubChem BioAssay data set” (2004)
